Experiments:
[1] = Antiinvasive activity against mouse 26-L5 cells after 6 to 8 hrs using hematoxylin/eosin dye by Matrigel assay; format: functional, cell-based
[2] = Cytotoxicity against mouse 26-L5 cells at <0.3 ug/ml after 24 hrs; format: cell-based

SMILES | IC50 [1] [nM] | Activity [2]
Cc1c(O)c(CCC(C)C)c2c(c1O)C(=O)c1cccc(O)c1C2=O [LUPINACIDIN A] | 210 | –
CC[C@H](C)CCc1c(O)c(C)c(O)c2c1C(=O)c1c(O)cccc1C2=O [LUPINACIDIN C] | 540 | Non-toxic
CCCCc1c(O)c(C)c(O)c2c1C(=O)c1c(O)cccc1C2=O [LUPINACIDIN B] | 920 | –
